Results on two molecules are retold here after patent US9763874B2, “Nanoparticles loaded with chemotherapeutic antitumoral drug” (priority 2011, dated 2017).

Series [1] deals with healthy Wistar rats. Kind of series: Example 2: adverse effects after a single IV bolus injection (mortality, lung injuries). Type of series: in vivo, rat. The settings on record: 7.5 mg/kg single IV bolus. Here is the method: The aim of the present in vivo study was to establish and assess a rat model able to induce toxicological signs and lung injuries similar to severe pulmonary adverse events observed in said clinical trial.
The dose levels of 5, 7.5 and 10 mg/kg were chosen according to previous in vivo studies, they respectively correspond to 30 mg/m2, 45 mg/m2 and 60 mg/m2 human doses.
The study involved finally 123 male Wistar rats.
Rats were weighted and distributed according to their individual body weight to form […] the day of IV treatment.
Drug suspension was administered according to the body weight of rat determined just before the administration, so as to administer a dose volume of 670 μl of a 3.71 mg/ml suspension to a 250 g rat. • The rats from groups 13 to 16 received a single IV injection of Doxorubicin at 7.5 mg/kg equivalent Doxorubicin HCl (Q1Dx1). […] Solution was administered according to the body weight of rat determined just before the administration, so as to administer a dose volume of 670 μl solution to a 250 g rat. • The rats from group 21 (Untreated control group) received no treatment.
Treatment allocation was decided at random and was as disclosed in Table 2.

In series [2] the test system is HCC. The settings on record: IV infusion in HCC; cited from earlier work.
Series [3] has as its system unresectable HCC. The settings on record: patients with unresectable HCC; cited from earlier work.

For `COc1cccc2c1C(=O)c1c(O)c3c(c(O)c1C2=O)C[C@@](O)(C(=O)CO)C[C@@H]3O[C@H]1C[C@H](N)[C@H](O)[C@H](C)O1` [Doxorubicin, doxorubicin], the “mortality and lung injuries” value in series [1] is reported as “Neither mortality, nor lung injuries”. The objective response rate in series [2] was 5-10%. As for `CNC(=O)c1cc(Oc2ccc(NC(=O)Nc3ccc(Cl)c(C(F)(F)F)c3)cc2)ccn1` [sorafenib], the “overall survival over placebo” value in series [3] is listed as “increase even modest”.
